From patent publication US7084158B2, “Substituted propargylamines” (Bayer Cropscience S.A., priority 2001, dated 2006)

How the values were obtained:
Format in all cases: in vivo
Set-up in all cases: key: compounds were considered to be active when, at a concentration of 500 ppm or less, they had an activity on the harmful organisms of 50% or more
[1] = test system: Ctenocephalides felis; assay: Example M: cat fleas fed with treated cattle blood, mortality; settings: 500 ppm or less; adult fleas fed blood-preparation mixture; after 48 hours
Method: The formulated compound was mixed with defibrinated cattle blood. 10 adult cat fleas (Ctenocephalides felis) were fed with this blood-preparation mixture. After 48 hours at about 38° C., the effect of the compound on the fleas was determined (mortality). The compounds of the following examples were active: 70, 1002, 1004, 1005, 1036, 60, 197, 1057.

[2] = test system: Diabrotica undecimpunctata; assay: Example C: corn rootworm eggs with maize corn, mortality; settings: 500 ppm or less; 4-5-day-old eggs; after 6 days
[3] = test system: Diabrotica undecimpunctata; assay: Example AC: treated soil, southern corn rootworm eggs mortality; settings: 500 ppm or less, eggs added after 0d, 21d and 42d, after 2 weeks
Method: An aqueous solution of the formulated compound to be examined was mixed with soil. After 0d, 21d and 42d, eggs of the southern corn rootworm (Diabrotica undecimpunctata) were placed together with 2 pre-swollen maize corns into a dish, covered with the treated soil and moisted with 10 ml of water. Soil and eggs were placed in a greenhouse (23° C., 60% relative atmosphere humidity). After 2 weeks of storage, the effect of the compound on the eggs and any larvae hatched therefrom was determined (mortality). The following examples were active: 70, 60, 197, 204.

[4] = test system: Heliothis virescens; assay: Example AH: sprayed cotton leaves, antifeeding activity on tobacco budworm larvae; settings: 500 ppm or less, L2 larvae, after 2, 3 and 4 days
Method: Cotton leaves were placed into a Petri dish, sprayed with an aqueous solution of the formulated compound to be examined and, after drying, populated with 5 L2 larvae of the American tobacco budworm (Heliothis virescens). After 2, 3 and 4 days of storage at about 25° C., the antifeeding activity of the compound on the larvae was determined. The following examples were active: 1036, 70, 60.

[5] = test system: Plutella maculipennis; assay: Example P: dipped cabbage leaf, diamondback moth larvae; settings: 500 ppm or less, after 3 days
Method: A cabbage leaf was dipped for about 5 seconds into an aqueous solution of the formulated compound to be examined. After drying, the cabbage leaf treated in this manner was transferred into a container and populated with 10 larvae of the diamondback moth (Plutella maculipennis). The container was then closed with a lid. After 3 days of storage at about 23° C., the effect of the compound on the larvae was determined. The following examples were active: 1036, 70, 60, 209.

[6] = test system: Plutella maculipennis; assay: Example W: cabbage plant, root-systemic activity on diamondback moth larvae; settings: 500 ppm or less; cabbage plant in treated water, populated after one week; after 3 days
Method: 2.4 ml of an aqueous solution of the formulated compound to be examined were pipetted into a bottle filled with 21.6 ml of water. A 14-day-old cabbage plant was transferred into the bottle. After one week, the plant was populated with 5 larvae of the diamondback moth (Plutella maculipennis). Plants and animals were then stored in a climatized chamber (23° C., 40–60% relative atmospheric humidity). After 3 days of storage, the root-systemic activity of the compound on the larvae was determined (mortality). The following examples were active: 1036, 70, 60.

[7] = test system: Spodoptera exigua; assay: Example Z: cotton leaves with larvae sprayed, sugar beet armyworm mortality; settings: 500 ppm or less; cotton leaves populated then sprayed; L2 larvae; after 4 days
Method: Cotton leaves were populated with 5 L2 larvae of the sugar beet armyworm (Spodoptera exigua) and then sprayed with an aqueous solution of the formulated compound to be examined. After 4 days of storage at about 23° C., the mortality among the larvae was determined. The following examples were active: 1036, 70, 60, 1047, 197.

[8] = test system: Leptinotarsa decemlineata; assay: Example AI: sprayed potato plant, repellent effect on Colorado beetle larvae; settings: 500 ppm or less; sprayed plant with untreated plant in a cage; after 1 and 3 days
Description: A potato plant was sprayed with an aqueous solution of the formulated compound to be examined and, together with an untreated plant, placed in a cage. The cage was populated with 100 larvae of the Colorado beetle (Leptinotarsa decemlineata). […] The following examples were active: 1036, 70, 60.

[9] = test system: Heliothis virescens; assay: Example V: dipped freeze-dried diet cube, tobacco budworm L2 larvae mortality; settings: 500 ppm or less, after 4 days
Method: Insect diet (as freeze-dried cube) was dipped into an aqueous solution of the formulated compound to be examined and then placed into a Petri dish. 10 L2 larvae of the American tobacco budworm (Heliothis virescens) were then added. The Petri dish was then closed with a lid. After 4 days of storage at about 23° C., the mortality among the larvae was determined. The following examples were active: 1036, 60.

[10] = test system: Carpocapsa pomonella; assay: Example I: insect diet and L1 larvae sprayed, codling moth mortality; settings: 500 ppm or less, after 8 days
Method: Ten L1 larvae of the codling moth (Carpocapsa pomonella) were placed into a Petri dish filled with insect diet. Insect diet and the larvae used were then sprayed with an aqueous solution of the formulated compound to be examined. The Petri dish was then closed with a lid. After 8 days of storage at about 23° C., the effect of the compound on the larvae was determined (mortality). The compounds of the following examples were active: 60, 70, 1002, 1005.

[11] = test system: Trialeurodes vaporariorum; assay: Example AD: bush beans sprayed, white fly larvicidal action; settings: 500 ppm or less; bush beans sprayed after hatching; after 11 days
Method: For oviposition, bush beans (Phaseolus vulgaris) were populated for 48 hours with adults of the white fly (Trialeurodes vaporariorum). After the larvae had hatched, the plants were sprayed to run-off point with an aqueous solution of the formulated compound to be examined. After 11 days, the larvicidal action was determined. The following examples were active: 1036, 70, 60, 1040, 197.

CC1CCN(CC#Cc2cc(C(F)(F)F)cc(C(F)(F)F)n2)CC1 [Example 60]
active: effect on the fleas (mortality) [1] | effect on the eggs and hatched larvae (mortality) [2] | effect on the eggs and hatched larvae (mortality) [3] | antifeeding activity on the larvae [4] | effect on the larvae [5] | root-systemic activity on the larvae (mortality) [6] | mortality among the larvae [7] | repellent effect on the larvae [8] | mortality among the larvae [9] | effect on the larvae (mortality) [10] | larvicidal action [11]
